This is an account of results in patent US20160089391A1, “Molecular Targets for Cardiovascular Disease” (Temple University-of the Commonwealth System of Higher …, priority 2014, published 2016).

The test system of the test is aorta of HHcy and HHcy/HG Cbs−/+ mice. Kind of test: Endothelium-dependent vascular relaxation to ACh in thoracic aorta after in vivo calpain inhibitor administration. Details: species or system mouse. The settings on record: 2 mg/kg BW i.p. daily for 2 weeks, p<0.05. How it is done:
Images (Left Panel) and quantification (Right Panel) showing HHcy and HG activates calpain in mouse aortic endothelial cells (MAECs, P0) isolated from CBS^−/+ mice (FIG. 3A). Calpain activity was measured in intact MAECs by the fluorescent substrate t-BOC-Leu-Met-CMAC (T-BOC, 10 μmol/L, 30 min). In FIG. 3B, calpain inhibitors rescued endothelium-dependent vascular relaxation to ACh in the aorta of HHcy CBS^−/+ and HHcy/HG CBS^−/+ mice in the presence of calpain inhibitors in vivo (Left Panel) and ex vivo (Right Panel). Left Panel: Calpain inhibitor MDL28170 (MDL, Sigma #M6690) was administrated in vivo by i.p. injection (2 mg/kg/day, 2 weeks). Right Panel: The arterial rings were incubated with calpain inhibitors: MDL, calpeptin and N-Acetyl-Leu-Leu-Met-CHO (ALLM, 20 μmol/L for all, Enzo life Sciences, PI-100-0005) for 1 hr. […]
Endothelial function was assessed in the mouse thoracic aorta using a multiple-wire myograph (DMT 610) (Cheng et al., 2011, Blood 118:1998-2006; Cheng et al., 2007, Can J Physiol Pharmacol 85:404-412; Cheng et al., 2001, Hypertension 37:433-439). […]

With MDL28170, the “endothelial function (endothelium-dependent vascular relaxation to ACh)” value is “largely improved”.
